{
  "source": "patent US20220395572A1",
  "about": "“C[…] THERAPY FOR TREATMENT OF DISC DEGENERATIVE DISEASE” (FIGENE, LLC, priority 2019, published 2022)",
  "key": {"[1]": {"tested_on": "in vitro formed nucleus pulposus tissues", "conditions": "TNF-alpha 1-5 ng/mL, within 48 hours; cited from earlier work"}, "Dermal fibroblasts": {"tested_on": "Dermal fibroblasts", "assay": "Growth factor production by dermal fibroblasts cultured 48 hours with CBD", "format": "cell-based", "conditions": "various CBD concentrations, OPTI-MEM with 10% fetal calf serum", "text": "(§1) In the groupings of three bars, the middle bar at each concentration represents 100,000 fibroblasts co-cultured with CBD at the indicated concentration. The right bar at each concentration represents 200,000 fibroblasts co-cultured with CBD at the indicated concentration. The left bar at each concentration represents 0 fibroblasts co-cultured with CBD at the indicated concentration;\nas §1, with “concentration.” for “concentration;”\nDermal fibroblasts were obtained from Allcells, Inc. and cultured for 48 hours in the indicated concentrations of CBD. […] Cultures were performed in OPTI-MEM media with 10% fetal calf serum."}, "[2]": {"tested_on": "CGRP expression in dorsal root ganglion (DRG) neurons innervating intervertebral discs", "conditions": "cited from earlier work"}},
  "data": [
    {"molecule": "TNF-alpha", "values": [
      {"measurement": "proteoglycan content of NP tissue relative to original", "setting": "[1]", "value": 25, "unit": "%"}
    ]},
    {"molecule": "C=C(C)C1CCC(C)=CC1c1c(O)cc(CCCCC)cc1O", "note": "(centres unmarked) [CBD, 2-[3-methyl-6-(1-methylethenyl)-2-cyclohexen-1-yl]-5-pentyl-1,3-benzenediol]", "values": [
      {"measurement": "IGF-1 production from fibroblasts", "setting": "Dermal fibroblasts; FIG. 1", "value": "augmentation of IGF-1 was observed"},
      {"measurement": "EGF-1 production from fibroblasts", "setting": "Dermal fibroblasts; FIG. 2", "value": "augmentation of EGF-1 was observed"}
    ]},
    {"molecule": "etanercept", "values": [
      {"measurement": "CGRP expression in DRG neurons innervating injured discs", "setting": "[2]; direct intradiscal application immediately after disc puncture, rats", "value": "suppressed CGRP expression"},
      {"measurement": "proportion of CGRP-immunoreactive neurons among FluoroGold-labeled neurons", "setting": "[2]; rat L4/5 disc puncture, direct intradiscal application, sham 21%±4%, puncture+saline 32%±7%", "value": "23%±4%"}
    ]}
  ]
}
